Results taken from US20230248037A1, “FLAVOUR ADDITIVES” (MARS, INCORPORATED, priority 2012, published 2023).

What was measured:
[1] = test system: T1R1/T1R3 receptor (umami receptor); assay: In vitro screening for binding and activation of the umami receptor; assay type: cell-based, cat; settings: for binding to and activation of the umami receptor: in silico modelling and in vitro assays using a non-human umami receptor, screening in the presence of 0.2 mM IMP
Protocol: In vitro screening was carried out in order to establish which first amino acids bind and activate the umami receptor.
In vitro screening was carried out in order to establish which second amino acids bind and activate the umami receptor.

[2] = test system: cats; assay: 2-bottle choice difference test of tastant solutions in water, intake by cats; parameters: species or system cat; settings: amino acids of the second group
Protocol: Cats were allowed access to water containing either 25 mM proline+25 mM histidine with a composition comprising 50 mM histidine. The methodology used a 2-bottle choice test with 24 cats (the final number of cats for each test can vary due to data being discarded by spillage, etc.). Cats were housed individually during trial periods and had free access to water available between testing periods. The test involved a choice test between the tastant/mixture at a given concentration dissolved in deionised water versus deionised water only or another tastant/mixture. Control was made for positional bias (e.g. A/B exposure 1 and B/A exposure 2) and evaporation loss. The testing time was 36 hours (i.e. 18 hours per day, allowing a two-day crossover). Following two consecutive days of each testing, cats had two consecutive days of rest. Cats were offered a dry diet as a single meal at the start of the test period for one hour, calculated to meet the individual requirements for each cat.

With `NCC(=O)O` [glycine] the “binding to and activation of the umami receptor” value (“binding to and activation” for short) [1] was “able to bind to and activate the umami receptor to different extents”.

In the case of `O=C(O)[C@@H]1CCCN1` [proline], the “acceptance (flavour effect) in in vivo tests” value (from here on “acceptance (flavour effect)”) [2] is reported as “positive acceptance”.

For `O=C(O)[C@@H]1C[C@@H](O)CN1` [hydroxyproline], the “acceptance (flavour effect)” value [2] was “positive acceptance”.

In the case of `N[C@@H](CCC(=O)O)C(=O)O` [glutamic acid], the “binding to the feline umami receptor” value [1] is reported as “does not bind” and the “acceptance (flavour effect)” value [2] is reported as “positive acceptance”.

In the case of `C[C@H](N)C(=O)O` [alanine], the “binding to and activation” value [1] is reported as “able to bind to and activate the umami receptor to different extents”.

`N[C@@H](Cc1ccccc1)C(=O)O` [phenylalanine] was tested, and the “binding to and activation” value [1] was “able to bind to and activate the umami receptor to different extents”.

In the case of `NCCC[C@H](N)C(=O)O` [ornithine], the “acceptance (flavour effect)” value [2] is reported as “positive acceptance”.

`N[C@@H](Cc1ccc(O)cc1)C(=O)O` [tyrosine] was tested, and the “binding to and activation” value [1] was “able to bind to and activate the umami receptor to different extents”.

With `NC(=O)CC[C@H](N)C(=O)O` [glutamine] the “acceptance (flavour effect)” value [2] was “positive acceptance”.

For `N[C@@H](CO)C(=O)O` [serine], the “binding to and activation” value [1] was “able to bind to and activate the umami receptor to different extents”.

`NCCCC[C@H](N)C(=O)O` [lysine] was tested, and the “acceptance (flavour effect)” value [2] was “positive acceptance”.

`NC(=O)C[C@H](N)C(=O)O` [asparagine] was tested, and the “binding to and activation” value [1] was “able to bind to and activate the umami receptor to different extents”.

In the case of `N[C@@H](Cc1c[nH]c2ccccc12)C(=O)O` [tryptophan], the “binding to and activation” value [1] is reported as “able to bind to and activate the umami receptor to different extents”.

In the case of `CC(C)C[C@H](N)C(=O)O` [leucine], the “binding to and activation” value [1] is reported as “able to bind to and activate the umami receptor to different extents”.

`C[C@@H](O)[C@H](N)C(=O)O` [threonine] was tested, and the “acceptance (flavour effect)” value [2] was “positive acceptance”.

`CC[C@H](C)[C@H](N)C(=O)O` [isoleucine] was tested, and the “acceptance (flavour effect)” value [2] was “positive acceptance”.

`N[C@@H](Cc1c[nH]cn1)C(=O)O` [histidine] was tested, and the “binding to and activation” value [1] was “able to bind to and activate the umami receptor to different extents”.

For `N[C@@H](CC(=O)O)C(=O)O` [aspartic acid], the “binding to the feline umami receptor” value [1] was “does not bind” and the “acceptance (flavour effect)” value [2] was “positive acceptance”.

For `CSCC[C@H](N)C(=O)O` [methionine], the “binding to and activation” value [1] was “able to bind to and activate the umami receptor to different extents”.

For `N[C@@H](CSSC[C@H](N)C(=O)O)C(=O)O` [cystine], the “acceptance (flavour effect)” value [2] was “positive acceptance”.

`N[C@@H](CS)C(=O)O` [cysteine] was tested, and the “binding to and activation” value [1] was “able to bind to and activate the umami receptor to different extents”.

With `CC(C)[C@H](N)C(=O)O` [valine] the “acceptance (flavour effect)” value [2] was “positive acceptance”.
